Tests used:
Assay type in all cases: cell-based
[1] = target: T1, hM5 (human Muscarinic receptor subtype 5) (Homo sapiens, UniProt P08912); test: Human M5 calcium mobilization FLIPR assay; settings: hM5 expressed in CHO cells, intracellular Ca2+ release, read-out: hM5 EC50
T1 construct: expressed in transfected cells; host or cells: CHO cells (Chinese hamster ovary cells, ATCC)
T1 sequence (P08912 1-532): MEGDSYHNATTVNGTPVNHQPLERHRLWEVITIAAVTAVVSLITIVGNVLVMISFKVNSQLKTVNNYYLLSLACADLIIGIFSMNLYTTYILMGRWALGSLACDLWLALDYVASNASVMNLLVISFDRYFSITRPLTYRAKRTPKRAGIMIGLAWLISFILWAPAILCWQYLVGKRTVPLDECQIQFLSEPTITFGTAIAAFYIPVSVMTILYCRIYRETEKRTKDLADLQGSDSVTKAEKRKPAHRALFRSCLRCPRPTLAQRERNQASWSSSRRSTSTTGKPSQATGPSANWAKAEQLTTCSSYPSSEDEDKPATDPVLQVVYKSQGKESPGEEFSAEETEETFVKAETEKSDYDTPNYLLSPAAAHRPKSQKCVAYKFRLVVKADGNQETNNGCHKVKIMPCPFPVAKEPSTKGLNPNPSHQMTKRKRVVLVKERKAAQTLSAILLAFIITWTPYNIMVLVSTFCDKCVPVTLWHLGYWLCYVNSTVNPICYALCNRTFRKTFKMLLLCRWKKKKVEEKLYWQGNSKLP
Description: (§1) Human M1, rat M1, human M3 and human M5 Calcium Mobilization FLIPR™ Assay
(§2) The compound activity in the present invention (EC50 or IC50) is measured using a 384 plate-based imaging assay that monitors drug induced intracellular Ca^2+ release in whole cells. Activation of hM1 (human Muscarinic receptor subtype 1, gene bank access NM_000738), rM1 (rat Muscarinic receptor subtype 1, gene bank access NM_080773), hM3 (human Muscarinic receptor subtype 3, gene bank access NM_000740NM_000740) and hM5 (human Muscarinic receptor subtype 5, gene bank access NM_0121258), receptors expressed in CHO cells (Chinese hamster ovary cells, ATCC) is quantified in a Molecular Devices FLIPR II™ instrument as an increase in fluorescent signal. Inhibition of hM3 and hM5 by compounds is determined by the decrease in fluorescent signal in response to 2 nM acetylcholine activation.
(§3) Prior to experiment, the cell culture medium is removed from the plates by inversion. […] Plates are incubated at 37° C. for 60 minutes prior to start the experiment. The incubation is terminated by washing the cells four times in assay buffer, leaving a residual 25 μl buffer per well. Cell plates are then transferred to the FLIPR, ready for compound additions.
(§4) The day of experiment, acetylcholine and compounds are diluted in assay buffer in three-fold concentration range (10 points serial dilution) for addition by FLIPR instrument. For all calcium assays, a baseline reading is taken for 10 seconds followed by the addition of 12.5 μl of compounds, resulting in a total well volume of 37.5 μl. Data is collected every second for 60 pictures and then every 6 seconds for 20 pictures prior to the addition of agonist. For hM3 and hM5, before agonist addition, a second baseline reading is taken for 10 seconds followed by the addition of 12.5 μl of agonist or buffer, producing a final volume of 50 μl. After agonist stimulation, the FLIPR continues to collect data every second for 60 pictures and then every 6 seconds for 20 pictures. The fluorescence emission is read using filter 1 (emission 510-570 nm) by the FLIPR on board CCD camera.
(§5) Calcium mobilization output data are calculated as the maximal relative fluorescence unit (RFU) minus the minimal value for both compound and agonist reading frame (except for hM1 and rM1 using only the maximal RFU). Data are analyzed using sigmoidal fits of a non-linear curve-fitting program (XLfit version 4.2.2 Excel add-in version 4.2.2 build 18 math 1Q version 2.1.2 build 18). All pEC50 and plC50 values are reported as arithmetic means ±standard error of mean of ‘n’ independent experiments.

[2] = target: T2, hM1 (human Muscarinic receptor subtype 1) (Homo sapiens, UniProt P11229); test: Human M1 calcium mobilization FLIPR assay; settings: hM1 expressed in CHO cells, intracellular Ca2+ release, read-out: hM1 EC50
T2 construct: expressed in transfected cells; host or cells: CHO cells (Chinese hamster ovary cells, ATCC)
T2 sequence (P11229 1-460): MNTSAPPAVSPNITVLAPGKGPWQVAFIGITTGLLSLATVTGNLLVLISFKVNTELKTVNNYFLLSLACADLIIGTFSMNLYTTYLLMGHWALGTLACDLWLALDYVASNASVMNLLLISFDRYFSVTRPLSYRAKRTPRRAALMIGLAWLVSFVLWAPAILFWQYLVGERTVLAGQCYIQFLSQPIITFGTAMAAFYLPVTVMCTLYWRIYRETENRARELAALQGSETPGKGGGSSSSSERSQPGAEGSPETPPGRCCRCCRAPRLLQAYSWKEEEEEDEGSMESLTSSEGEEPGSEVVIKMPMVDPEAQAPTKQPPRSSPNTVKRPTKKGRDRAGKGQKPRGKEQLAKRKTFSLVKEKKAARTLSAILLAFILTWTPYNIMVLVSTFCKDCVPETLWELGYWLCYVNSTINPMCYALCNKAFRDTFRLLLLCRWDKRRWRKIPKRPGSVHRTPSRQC
Method in brief: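 CHO cells expressing the receptor, dye-loaded at 37°C for 60 min, read on FLIPR at 510-570 nm. Agonism taken from compound-induced Ca2+ rise (max RFU for M1); M3/M5 inhibition measured against 2 nM acetylcholine using max minus min RFU. 10-point threefold dilutions, sigmoidal fits.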

[3] = target: T3, hM3 (human Muscarinic receptor subtype 3) (Homo sapiens, UniProt P20309); test: Human M3 calcium mobilization FLIPR assay; settings: hM3 expressed in CHO cells, intracellular Ca2+ release, read-out: hM3 EC50
T3 construct: expressed in transfected cells; host or cells: CHO cells (Chinese hamster ovary cells, ATCC)
T3 sequence (P20309 whole entry): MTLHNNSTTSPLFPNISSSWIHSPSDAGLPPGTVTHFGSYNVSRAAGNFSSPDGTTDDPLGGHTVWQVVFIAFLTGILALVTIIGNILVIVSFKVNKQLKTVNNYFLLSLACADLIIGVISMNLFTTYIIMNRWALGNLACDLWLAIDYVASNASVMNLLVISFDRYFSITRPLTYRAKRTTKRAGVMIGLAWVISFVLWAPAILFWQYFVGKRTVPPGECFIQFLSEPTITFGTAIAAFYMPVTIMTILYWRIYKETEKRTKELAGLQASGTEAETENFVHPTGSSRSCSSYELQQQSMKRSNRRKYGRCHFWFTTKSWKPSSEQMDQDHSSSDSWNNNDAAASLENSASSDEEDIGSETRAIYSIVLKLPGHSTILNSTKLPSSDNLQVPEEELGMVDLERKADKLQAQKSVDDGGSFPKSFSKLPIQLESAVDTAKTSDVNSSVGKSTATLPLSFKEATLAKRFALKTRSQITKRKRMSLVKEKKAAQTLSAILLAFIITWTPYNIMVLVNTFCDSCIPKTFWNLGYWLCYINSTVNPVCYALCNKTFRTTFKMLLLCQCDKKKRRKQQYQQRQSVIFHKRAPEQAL
Description: as §1, §2, §3, §4, §5

Compound	EC50 [1]	EC50 [2]	EC50 [3]
COC(=O)N1CCC(C)(N2CCC(n3c(=O)[nH]c4ccc(F)cc43)CC2)C1 (single isomer, unassigned) [Example 52, methyl 3-(4-(6-fluoro-2-oxo-2,3-dihydro-1H-benzo[d]imidazol-1-yl)piperidin-1-yl)-3-methylpyrrolidine-1-carboxylate]	> 9.63 µM	0.0147 µM	> 40 µM
CC1(N2CCC(n3c(=O)[nH]c4ccc(F)cc43)CC2)CCN(C(=O)OCCF)C1 (single isomer, unassigned) [Example 53, 2-fluoroethyl 3-(4-(6-fluoro-2-oxo-2,3-dihydro-1H-benzo[d]imidazol-1-yl)piperidin-1-yl)-3-methylpyrrolidine-1-carboxylate]	> 6.16 µM	0.0115 µM	> 40 µM
CCOC(=O)N1CCC(C)(N2CCC(n3c(=O)[nH]c4cc(F)c(C)cc43)CC2)C1 (single isomer, unassigned) [Example 55, ethyl 3-(4-(5-fluoro-6-methyl-2-oxo-2,3-dihydro-1H-benzo[d]imidazol-1-yl)piperidin-1-yl)-3-methylpyrrolidine-1-carboxylate]	1.82 µM	0.0049 µM	> 40 µM
CCOC(=O)N1CCC(C)(N2CCC(n3c(=O)[nH]c4cc(F)c(C)cc43)CC2)C1 (single isomer, unassigned) [Example 56, ethyl 3-(4-(5-fluoro-6-methyl-2-oxo-2,3-dihydro-1H-benzo[d]imidazol-1-yl)piperidin-1-yl)-3-methylpyrrolidine-1-carboxylate]	1.28 µM	0.0035 µM	> 3.54 µM
CCOC(=O)N1CCC(C)(N2CCC(n3c(=O)[nH]c4cc(F)c(F)cc43)CC2)C1 (single isomer, unassigned) [Example 57, ethyl 3-(4-(5,6-difluoro-2-oxo-2,3-dihydro-1H-benzo[d]imidazol-1-yl)piperidin-1-yl)-3-methylpyrrolidine-1-carboxylate]	0.356 µM	0.0026 µM	3.55 µM
CCOC(=O)N1CCC(C)(N2CCC(n3c(=O)[nH]c4cc(F)c(F)cc43)CC2)C1 (single isomer, unassigned) [Example 58, ethyl 3-(4-(5,6-difluoro-2-oxo-2,3-dihydro-1H-benzo[d]imidazol-1-yl)piperidin-1-yl)-3-methylpyrrolidine-1-carboxylate]	2.21 µM	0.0177 µM	> 40 µM
COC(=O)N1CCC(C)(N2CCC(n3c(=O)[nH]c4cc(F)c(F)cc43)CC2)C1 (single isomer, unassigned) [Example 60, methyl 3-(4-(5,6-difluoro-2-oxo-2,3-dihydro-1H-benzo[d]imidazol-1-yl)piperidin-1-yl)-3-methylpyrrolidine-1-carboxylate]	> 7.27 µM	0.0135 µM	> 40 µM
CC1(N2CCC(n3c(=O)[nH]c4cc(F)c(F)cc43)CC2)CCN(C(=O)OCCF)C1 (single isomer, unassigned) [Example 61, 2-fluoroethyl 3-(4-(5,6-difluoro-2-oxo-2,3-dihydro-1H-benzo[d]imidazol-1-yl)piperidin-1-yl)-3-methylpyrrolidine-1-carboxylate]	> 2.71 µM	0.0141 µM	> 40 µM
COC(=O)N1CCC(C)(N2CCC(N3C(=O)Cc4ccc(C)cc43)CC2)C1 (single isomer, unassigned) [Example 67, methyl 3-methyl-3-(4-(6-methyl-2-oxoindolin-1-yl)piperidin-1-yl)pyrrolidine-1-carboxylate]	> 6.71 µM	0.0209 µM	> 33.5 µM
COC(=O)N1CCC(C)(N2CCC(N3C(=O)Cc4ccc(C)cc43)CC2)C1 (single isomer, unassigned) [Example 68, methyl 3-methyl-3-(4-(6-methyl-2-oxoindolin-1-yl)piperidin-1-yl)pyrrolidine-1-carboxylate]	> 4.08 µM	0.0133 µM	2.33 µM
CCOC(=O)N1CCC(C)(N2CCC(N3C(=O)Cc4ccc(C)cc43)CC2)C1 (single isomer, unassigned) [Example 69, ethyl 3-methyl-3-(4-(6-methyl-2-oxoindolin-1-yl)piperidin-1-yl)pyrrolidine-1-carboxylate]	1.37 µM	0.011 µM	> 40 µM
CCOC(=O)N1CCC(C)(N2CCC(N3C(=O)Cc4ccccc43)CC2)C1 (single isomer, unassigned) [Example 72, ethyl 3-methyl-3-(4-(2-oxoindolin-1-yl)piperidin-1-yl)pyrrolidine-1-carboxylate]	> 40 µM	0.0095 µM	> 40 µM
CCOC(=O)N1CCC(C)(N2CCC(N3C(=O)Cc4ccccc43)CC2)C1 (single isomer, unassigned) [Example 73, ethyl 3-methyl-3-(4-(2-oxoindolin-1-yl)piperidin-1-yl)pyrrolidine-1-carboxylate]	> 40 µM	0.031 µM	> 40 µM
CCOC(=O)N1CCC(C)(N2CCC(N3C(=O)Cc4ccc(F)cc43)CC2)C1 (single isomer, unassigned) [Example 74, ethyl 3-(4-(6-fluoro-2-oxoindolin-1-yl)piperidin-1-yl)-3-methylpyrrolidine-1-carboxylate]	> 21.2 µM	0.01 µM	> 40 µM
CCOC(=O)N1CCC(C)(N2CCC(N3C(=O)Cc4ccc(F)cc43)CC2)C1 (single isomer, unassigned) [Example 75, ethyl 3-(4-(6-fluoro-2-oxoindolin-1-yl)piperidin-1-yl)-3-methylpyrrolidine-1-carboxylate]	> 27 µM	0.0475 µM	> 40 µM
CCOC(=O)N1CCC(C)(N2CCC(N3C(=O)Cc4cc(F)ccc43)CC2)C1 (single isomer, unassigned) [Example 79, ethyl 3-(4-(5-fluoro-2-oxoindolin-1-yl)piperidin-1-yl)-3-methylpyrrolidine-1-carboxylate]	2.54 µM	0.0092 µM	> 40 µM
CCOC(=O)N1CCC(C)(N2CCC(N3C(=O)Cc4cc(F)c(C)cc43)CC2)C1 (single isomer, unassigned) [Example 81, ethyl 3-(4-(5-fluoro-6-methyl-2-oxoindolin-1-yl)piperidin-1-yl)-3-methylpyrrolidine-1-carboxylate]	1.24 µM	0.0087 µM	> 13.3 µM

— patent publication US20090221642A1, “MUSCARINIC RECEPTOR AGONISTS, COMPOSITIONS, METHODS OF TREATMENT THEREOF, AND PROCESSES FOR PREPARATION THEREOF-176” (AstraZeneca AB, priority 2008, published 2009)
